# Values joined by “and” are separate entries in the source; they are usually repeats but may differ in a detail not shown here. Equal entries are not always repeated.
# Key:
# recombinant human TH = target: T1, recombinant human TH (Homo sapiens, UniProt P07101); test: TH enzymatic activity assay (fluorescence, 96-well); format: biochemical
# T1 construct: For purification of MBP-tagged full-length PAH and TH; made in house; host or cells: E. coli T7 Express (NEB) with pRARE2
# Method: The TH enzymatic activity assay was performed using a 96-well plate format (Greiner). […] To initiate the reaction, L-Tyr (Fluka) was added (final concentration, 30 μM). The assay contained positive control samples (complete reaction mix, no inhibitor test compound), negative control samples (reaction mix without BH4), and an additional L-Tyr control (reaction mix without BH4, spiked with 25.5 μM or 27 μM L-Tyr) to measure the progression of the enzymatic reaction. All samples were measured in technical triplicates. The TH assay was performed at RT for 30 min. Depletion of the reaction substrate (L-Tyr) was continuously monitored at 240 s intervals by fluorescence measurements (ex.280 nm/em.306 nm) for 12 min using a Tecan Infinite 200 plate reader.
# Negative control values (no enzyme or no substrate) were deducted from the positive control (full enzyme activity) and test compound values. Subsequently, the data were normalized (Pos. Ctr. = 100% of the enzyme activity). The results were further analyzed with GraphPad Prism 9 using the nonlinear regression model: log(inhibitor) vs. response−variableslope(fourparameters) which fits the following equation to the data: Y=Bottom+(Top−Bottom)/(1+10^((logIC50−X)×HillSlope))
# The IC50 values were calculated from three independent experiments and are given as the mean ± SD.
# [1] = tested on: 97 targets (receptors, enzymes, and ion channels); test: Eurofins Diversity Panel, 97 binding, enzyme and uptake assays; conditions: 10 μM
# Method: TPT-004 was evaluated at a concentration of 10 μM in a total of 97 binding, enzyme, and uptake assays (Diversity Panel) by Eurofins Cerep (Celle l’Evescault, France). Compound binding was calculated as % inhibition of the binding of a ligand specific to each target. The compound enzyme inhibition effect was calculated as percentage inhibition of the control enzyme activity. Results showing an inhibition (or stimulation for assays run under basal conditions) of >50% are considered to represent significant effects of the test compounds. Results showing an inhibition (or stimulation) between 25% and 50% are indicative of weak to moderate effects. Results showing an inhibition (or stimulation) lower than 25% are not considered significant and are mostly attributable to variability in the signal around the control level. […] In each experiment, and if applicable, the respective reference compound was tested concurrently with TPT-004, and the data were compared with historical values determined at Eurofins. […]
# The results are expressed as a percent of control-specific binding: measured specific binding/control specific binding×100 and as a percent inhibition of control-specific binding: 100−(measured specific binding/control specific binding×100) obtained in the presence of TPT-004. […]
# Sprague–Dawley rats = test: Dose-range finding study in rats, necropsy and organ weight; format: in vivo, rat; conditions: for Organ weight, Brain / Organ weight, Heart / Organ weight, Kidney / Organ weight, Liver / Organ weight, Lung / Organ weight, Ovary (n=3 per group) / Organ weight, Spleen / Organ weight, Testis (n=3 per group): day 8
# Method: TPT-004 was formulated in 0.5% (w/v) CMC-Na in water and administered by oral gavage (PO) twice daily (b.i.d.) with a 12 h interval to the treatment groups (3 male and 3 female Sprague–Dawley rats each) for 8 days (15 successive applications). Rats were dosed with 10, 45, and 200 mg/kg, i.e., daily doses of 20, 90, and 400 mg/kg. In addition, a control group was dosed at the same frequency as the vehicle (0.5% CMC-Na).
# Blood samples were collected as described below. The animal sacrifice (exsanguination) was performed on day 8. During the necropsy, the selected organs were collected, weighed, and shipped to a third-party laboratory for histopathological examination (as described below).
# [2] = two rodent species; previously published pharmacokinetic data; cited from earlier work
# T1 sequence (P07101 whole entry): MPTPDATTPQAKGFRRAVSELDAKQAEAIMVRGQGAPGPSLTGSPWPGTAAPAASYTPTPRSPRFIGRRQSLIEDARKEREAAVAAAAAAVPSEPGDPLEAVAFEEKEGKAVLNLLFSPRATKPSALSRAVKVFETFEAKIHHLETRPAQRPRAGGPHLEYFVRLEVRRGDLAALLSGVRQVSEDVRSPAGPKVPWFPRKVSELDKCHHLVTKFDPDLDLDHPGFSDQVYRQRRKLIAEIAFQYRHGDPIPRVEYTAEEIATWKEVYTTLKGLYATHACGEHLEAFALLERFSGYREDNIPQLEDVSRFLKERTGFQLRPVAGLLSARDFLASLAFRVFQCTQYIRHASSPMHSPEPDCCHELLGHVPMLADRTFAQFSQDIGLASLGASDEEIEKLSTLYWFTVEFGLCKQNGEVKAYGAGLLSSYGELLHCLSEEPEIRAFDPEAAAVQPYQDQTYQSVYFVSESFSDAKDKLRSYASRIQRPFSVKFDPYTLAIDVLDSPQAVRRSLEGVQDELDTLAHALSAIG
compound,measurement,setting,value
CCn1c(=O)[nH]c(=O)c2c1nc(Cc1cn3cc(C)sc3n1)n2CC1COC1 [TPT-004],Mean TH activity [%],recombinant human TH; 10 nM,92.60%
same,IC50,"recombinant human TH; 10 nM to 30 μM, 30 μM L-Tyr, 5 μM BH4",1.36 µM
same,Mean TH activity [%],recombinant human TH; 30 nM,90.14%
same,Mean TH activity [%],recombinant human TH; 100 nM,95.57%
same,Mean TH activity [%],recombinant human TH; 300 nM,86.81%
same,Mean TH activity [%],recombinant human TH; 1 μM,58.14%
same,Mean TH activity [%],recombinant human TH; 3 μM,28.97%
same,Mean TH activity [%],recombinant human TH; 10 μM,6.59%
same,Mean TH activity [%],recombinant human TH; 30 μM,-6.30%
same,Selectivity ratio TH IC50 : TPH1 IC50,recombinant human TH; calculated from determined IC50 values,40.71
same,IC50,recombinant human TH; supplementary CSV,1.36 µM
same,significant effects (more than 50% inhibition or stimulation) among 97 targets,[1],a significant effect was observed only for the rat homolog of TH
same,"Organ weight, Brain",Sprague–Dawley rats; 10 mg/kg PO BID,6.8 g/kg body weight
same,"Organ weight, Heart",Sprague–Dawley rats; 10 mg/kg PO BID,3.5 g/kg body weight
same,"Organ weight, Kidney",Sprague–Dawley rats; 10 mg/kg PO BID,3.8 g/kg body weight
same,"Organ weight, Liver",Sprague–Dawley rats; 10 mg/kg PO BID,39.4 g/kg body weight
same,"Organ weight, Lung",Sprague–Dawley rats; 10 mg/kg PO BID,5.3 g/kg body weight
same,"Organ weight, Ovary (n=3 per group)",Sprague–Dawley rats; 10 mg/kg PO BID,0.72 g/kg body weight
same,"Organ weight, Spleen",Sprague–Dawley rats; 10 mg/kg PO BID,2.9 g/kg body weight
same,"Organ weight, Testis (n=3 per group)",Sprague–Dawley rats; 10 mg/kg PO BID,8.7 g/kg body weight
same,"Organ weight, Brain",Sprague–Dawley rats; 45 mg/kg PO BID,6.5 g/kg body weight
same,"Organ weight, Heart",Sprague–Dawley rats; 45 mg/kg PO BID,3.6 g/kg body weight
same,"Organ weight, Kidney",Sprague–Dawley rats; 45 mg/kg PO BID,3.6 g/kg body weight
same,"Organ weight, Liver",Sprague–Dawley rats; 45 mg/kg PO BID,42.1 g/kg body weight
same,"Organ weight, Lung",Sprague–Dawley rats; 45 mg/kg PO BID,5.2 g/kg body weight
same,"Organ weight, Ovary (n=3 per group)",Sprague–Dawley rats; 45 mg/kg PO BID,0.55 g/kg body weight
same,"Organ weight, Spleen",Sprague–Dawley rats; 45 mg/kg PO BID,2.8 g/kg body weight
same,"Organ weight, Testis (n=3 per group)",Sprague–Dawley rats; 45 mg/kg PO BID,8.1 g/kg body weight
same,"Organ weight, Brain",Sprague–Dawley rats; 200 mg/kg PO BID,6.7 g/kg body weight
same,"Organ weight, Heart",Sprague–Dawley rats; 200 mg/kg PO BID,3.6 g/kg body weight
same,"Organ weight, Kidney",Sprague–Dawley rats; 200 mg/kg PO BID,4.0 g/kg body weight
same,"Organ weight, Lung",Sprague–Dawley rats; 200 mg/kg PO BID,5.2 g/kg body weight
same,"Organ weight, Ovary (n=3 per group)",Sprague–Dawley rats; 200 mg/kg PO BID,0.65 g/kg body weight
same,"Organ weight, Spleen",Sprague–Dawley rats; 200 mg/kg PO BID,2.8 g/kg body weight
same,"Organ weight, Testis (n=3 per group)",Sprague–Dawley rats; 200 mg/kg PO BID,8.4 g/kg body weight
same,"Organ weight, Liver","Sprague–Dawley rats; 200 mg/kg PO BID, vehicle 41.2 ± 2.2, p = 0.0128",45.2 g/kg body weight and 45.2 ± 1.2 g/kg body weight
same,gross lesions at necropsy,"Sprague–Dawley rats; 10, 45, or 200 mg/kg BID PO, 8 days",No test-item-related gross lesions
same,"weight of the organs, vehicle vs treatment groups, overall","Sprague–Dawley rats; 10, 45 or 200 mg/kg BID PO, 8 days, except liver at 200 mg/kg BID",No significant difference
same,blood-brain barrier penetration,[2],exceptionally low blood-brain barrier penetration
